{
  "source": "ChEMBL document CHEMBL3046643",
  "about": "“Effect of chronic treatment with new benzylidene-thiazolidine-2,4-dione (LPSF/GQ-06) with potential hypoglycemic on rat Leydig cell steroidogenesis” (Med Chem Res, 2013)",
  "key": {"Rattus norvegicus [1]": {"tested_on": "Rattus norvegicus", "experiment": "Toxicity in Rattus norvegicus Wistar albino (rat) assessed as change in body weight at 5 mg/kg, po after 15 days", "format": "organism-based", "design": "dose 5 mg/kg, route oral", "conditions": "in vivo, 360 h"}, "Rattus norvegicus [2]": {"tested_on": "Rattus norvegicus", "experiment": "Toxicity in Rattus norvegicus Wistar albino (rat) assessed as change in relative dry weight of seminal vesicle at 5 mg/kg, po after 15 days", "format": "organism-based", "design": "dose 5 mg/kg, route oral", "conditions": "in vivo, 360 h"}, "Rattus norvegicus [3]": {"tested_on": "Rattus norvegicus", "experiment": "Induction of steroidogenesis in Rattus norvegicus Wistar albino (rat) Leydig cells assessed as increase in dbcAMP-induced testosterone level at 5 mg/kg, po after 15 days by radioimmunoassay (reference value: 69.83 +/- 1.85 no unit)", "format": "functional"}, "Rattus norvegicus [4]": {"tested_on": "Rattus norvegicus", "experiment": "Effect on StAR expression in Rattus norvegicus Wistar albino (rat) Leydig cells at 5 mg/kg, po after 15 days by immunocytochemistry analysis relative to untreated control", "format": "functional, organism-based", "design": "dose 5 mg/kg"}, "Rattus norvegicus [5]": {"tested_on": "Rattus norvegicus", "experiment": "Induction of steroidogenesis in Rattus norvegicus Wistar albino (rat) Leydig cells assessed as increase in 22(R)-OH-C-induced testosterone level at 5 mg/kg, po after 15 days by radioimmunoassay (reference value: 83.5 +/- 3.36 no unit)", "format": "functional"}, "Rattus norvegicus [6]": {"tested_on": "Rattus norvegicus", "experiment": "Induction of steroidogenesis in Rattus norvegicus Wistar albino (rat) Leydig cells assessed as increase in human chorionic gonadotropin-induced testosterone level at 5 mg/kg, po after 15 days by radioimmunoassay (reference value: 92.75 +/- 4.38 no unit)", "format": "functional"}, "Rattus norvegicus [7]": {"tested_on": "Rattus norvegicus", "experiment": "Induction of steroidogenesis in Rattus norvegicus Wistar albino (rat) assessed as increase in total plasma testosterone level at 5 mg/kg, po after 15 days (reference value: 2.01 +/- 1.21 ng/mL)", "format": "functional"}, "Rattus norvegicus [8]": {"tested_on": "Rattus norvegicus", "experiment": "Toxicity in Rattus norvegicus Wistar albino (rat) Leydig cells assessed as morphological changes at 5 mg/kg, po after 15 days by electron transmission microscopic analysis relative to untreated control", "format": "organism-based", "design": "dose 5 mg/kg, route oral", "conditions": "in vivo, 360 h"}, "Rattus norvegicus [9]": {"tested_on": "Rattus norvegicus", "experiment": "Toxicity in Rattus norvegicus Wistar albino (rat) Leydig cells assessed as morphological changes at 5 mg/kg, po after 15 days by hematoxylin-eosin staining-based light microscopic analysis relative to untreated control", "format": "organism-based", "design": "dose 5 mg/kg, route oral", "conditions": "in vivo, 360 h"}, "Rattus norvegicus [10]": {"tested_on": "Rattus norvegicus", "experiment": "Toxicity in Rattus norvegicus Wistar albino (rat) assessed as change in relative weight of testis at 5 mg/kg, po after 15 days", "format": "organism-based", "design": "dose 5 mg/kg, route oral", "conditions": "in vivo, 360 h"}, "Rattus norvegicus [11]": {"tested_on": "Rattus norvegicus", "experiment": "Effect on P450scc expression in Rattus norvegicus Wistar albino (rat) Leydig cells at 5 mg/kg, po after 15 days by immunocytochemistry analysis relative to untreated control", "format": "functional, organism-based", "design": "dose 5 mg/kg"}, "Rattus norvegicus [12]": {"tested_on": "Rattus norvegicus", "experiment": "Induction of steroidogenesis in Rattus norvegicus Wistar albino (rat) Leydig cells assessed as increase in pregnenolone-induced testosterone level at 5 mg/kg, po after 15 days by radioimmunoassay (reference value: 34 +/- 5.49 no unit)", "format": "functional"}},
  "note": "Activity calls are given as the source filed them. The rule behind the calls is not given here.",
  "data": [
    {"molecule": "COc1cccc(OC)c1/C=C1\\SC(=O)N(Cc2ccc(C)cc2)C1=O", "values": [
      {"measurement": "Activity", "setting": "Rattus norvegicus [1]", "result": "Non-toxic"},
      {"measurement": "Activity", "setting": "Rattus norvegicus [2]", "result": "Non-toxic"},
      {"measurement": "testosterone level", "setting": "Rattus norvegicus [3]", "result": 154.16},
      {"measurement": "Activity", "setting": "Rattus norvegicus [4]", "result": "inactive"},
      {"measurement": "testosterone level", "setting": "Rattus norvegicus [5]", "result": 118.3},
      {"measurement": "testosterone level", "setting": "Rattus norvegicus [6]", "result": 164.1},
      {"measurement": "Activity", "setting": "Rattus norvegicus [7]", "result": 7.7, "unit": "ng/mL"},
      {"measurement": "Activity", "setting": "Rattus norvegicus [8]", "result": "Non-toxic"},
      {"measurement": "Activity", "setting": "Rattus norvegicus [9]", "result": "Non-toxic"},
      {"measurement": "Activity", "setting": "Rattus norvegicus [10]", "result": "Non-toxic"},
      {"measurement": "Activity", "setting": "Rattus norvegicus [11]", "result": "inactive"},
      {"measurement": "testosterone level", "setting": "Rattus norvegicus [12]", "result": 56.66}
    ]}
  ]
}
